From patent US11466025B2, “Thienopyridine derivatives containing unsaturated aliphatic olefinic bond, preparation method and use thereof” (Tianjin Institute of Pharmaceutical Research Co., Ltd., priority 2017, dated 2022) come the findings set out here.

Structures are written as SMILES.

For series [1], the system named is arteriovenous bypass thrombosis in rats. Kind of series: Test of effect of compounds on arteriovenous bypass thrombosis in rats. Format: in vivo, SD rats. The note with it: rats; for Inhibition rate (%): dry weight of thrombus. Here is the method:
Test of Effect of Compounds on Arteriovenous Bypass Thrombosis in Rats
Male SD rats were randomly divided into solvent control group, positive drug control group and test compound group. The solvent control group was administered a corresponding volume of the solvent. […] Rats were anesthetized with 4% chloral hydrate (0.32 g/kg), and fixed on the operating table at the supine position. The right common carotid artery and the left external jugular vein were separated, and was each inserted with a Teflon tube filled with normal saline solution containing heparin (50 U/mL), which were connected through another Teflon tube. A 6 cm long cotton thread was placed at the joints of the two tubes. After 2.5 h of administration, the arteriovenous loop was opened in each group and circulated for 15 min. The blood flow was interrupted, and the cotton thread wrapped with the thrombus was quickly removed and weighed. The weight of the cotton thread was subtracted to obtain the wet weight of the thrombus, and then it was baked in the oven to constant weight and weighed. The weight of the cotton thread was subtracted to obtain the dry weight of the thrombus.

For series [2], the system named is bleeding time of amputated tail in rats. Kind of series: Test of hemorrhagic side effects: bleeding time of amputated tail in rats. Format: in vivo, SD rats. Particulars: intragastric, tail cut 1 h after administration, linear equation fitted. As for the experimental part: Test of Hemorrhagic Side Effects:
1 h after administration, the rats were anesthetized by intraperitoneal injection of 20% urethane (1 g/kg), and the tail was cut off 5 mm from the tip of the tail, which was then placed in a test tube containing 5 ml normal saline at 37° C. The time from tail cut to cease of bleeding was recorded as the bleeding time. The increasing rate of bleeding time in each dose group was calculated, with the bleeding time of the rats in the control group being 100%.

Series [3] has as its system platelet aggregation induced by ADP. Kind of series: Test of inhibitory effect of compounds on platelet aggregation in rats (ex vivo, ADP-induced, after intragastric administration). The arrangement: species or system SD rats. Particulars: rats; for Inhibition rate (%): platelet aggregation, control = 100%; for Aggregation rate (%): 2 h after administration, ADP 20 uM. Here is the method: Test of Inhibitory Effect of Compounds on Platelet Aggregation in Rats Healthy male SD rats were selected and randomly divided into solvent control group, positive drug control group and test compound group. Intragastric administration was carried out, with the administration volume being 10 ml/kg˜bw. […] The platelet count was adjusted to 5×10^8 cells/ml with PPP.

On to `CC(=O)Oc1cc2c(s1)CCN(C(C(=O)C1CC1)c1ccccc1F)C2` (stereo not shown) [Prasugrel, reference compound], for which the 50% effective dose (ED50) (in general, the midpoint of the dose-response relation) in series [1] (Rattus norvegicus, po, dry weight of thrombus from arteriovenous bypass, intragastric, read-out: ED50) is 1.57 mg/kg; in series [3] (Rattus norvegicus, inhibition of ADP-induced platelet aggregation, oral administration, read-out: ED50), 0.612 mg/kg. The “Inhibition rate (%)” value in series [1] (intragastric 0.1 mg/kg) is listed as 6.0%; in series [1] (intragastric 0.3 mg/kg), 9.0%; in series [1] (intragastric 1 mg/kg), 35.7%; in series [1] (intragastric 3 mg/kg), 70.2%; in series [3] (intragastric 0.25 mg/kg), 13.3%; in series [3] (intragastric 0.5 mg/kg) it was 37.8%. For the same compound, the “Inhibition rate (%)” value in series [3] (intragastric 1 mg/kg) is listed as 75.0%. The “ED200 (dose that doubled the bleeding time)” value in series [2] came to 0.513 mg/kg. Moreover, the “Aggregation rate (%)” value in series [3] (intragastric 0.25 mg/kg) was determined as 52.1 ± 6.6%; in series [3] (intragastric 0.5 mg/kg), 37.4 ± 12.3 %; in series [3] (intragastric 1 mg/kg), 15.0 ± 10.2 %.
